Assay [1] deals with T1, Mitogen-activated protein kinase kinase kinase 2 (Homo sapiens, UniProt Q9Y2U5).
T1 sequence (Q9Y2U5 whole entry): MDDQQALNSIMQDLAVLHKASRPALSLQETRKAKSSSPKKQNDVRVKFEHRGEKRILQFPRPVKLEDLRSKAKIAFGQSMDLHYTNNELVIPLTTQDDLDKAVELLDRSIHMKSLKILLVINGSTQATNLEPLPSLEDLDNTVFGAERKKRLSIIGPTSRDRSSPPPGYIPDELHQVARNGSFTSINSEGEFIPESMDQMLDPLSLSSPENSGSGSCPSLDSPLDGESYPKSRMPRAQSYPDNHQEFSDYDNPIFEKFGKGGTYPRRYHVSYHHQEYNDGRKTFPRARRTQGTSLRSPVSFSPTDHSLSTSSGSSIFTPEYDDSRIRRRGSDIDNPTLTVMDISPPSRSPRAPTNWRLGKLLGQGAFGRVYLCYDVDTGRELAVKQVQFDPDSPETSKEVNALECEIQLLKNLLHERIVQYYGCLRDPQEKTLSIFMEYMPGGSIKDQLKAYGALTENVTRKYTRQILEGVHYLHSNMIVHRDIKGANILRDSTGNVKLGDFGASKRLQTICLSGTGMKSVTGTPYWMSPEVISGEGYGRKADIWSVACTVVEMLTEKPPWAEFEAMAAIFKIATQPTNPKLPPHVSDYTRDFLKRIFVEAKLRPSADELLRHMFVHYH

For assay [2], the target named is Activated CDC42 kinase 1 (Homo sapiens, UniProt Q07912).
Activated CDC42 kinase 1, sequence (Q07912 whole entry): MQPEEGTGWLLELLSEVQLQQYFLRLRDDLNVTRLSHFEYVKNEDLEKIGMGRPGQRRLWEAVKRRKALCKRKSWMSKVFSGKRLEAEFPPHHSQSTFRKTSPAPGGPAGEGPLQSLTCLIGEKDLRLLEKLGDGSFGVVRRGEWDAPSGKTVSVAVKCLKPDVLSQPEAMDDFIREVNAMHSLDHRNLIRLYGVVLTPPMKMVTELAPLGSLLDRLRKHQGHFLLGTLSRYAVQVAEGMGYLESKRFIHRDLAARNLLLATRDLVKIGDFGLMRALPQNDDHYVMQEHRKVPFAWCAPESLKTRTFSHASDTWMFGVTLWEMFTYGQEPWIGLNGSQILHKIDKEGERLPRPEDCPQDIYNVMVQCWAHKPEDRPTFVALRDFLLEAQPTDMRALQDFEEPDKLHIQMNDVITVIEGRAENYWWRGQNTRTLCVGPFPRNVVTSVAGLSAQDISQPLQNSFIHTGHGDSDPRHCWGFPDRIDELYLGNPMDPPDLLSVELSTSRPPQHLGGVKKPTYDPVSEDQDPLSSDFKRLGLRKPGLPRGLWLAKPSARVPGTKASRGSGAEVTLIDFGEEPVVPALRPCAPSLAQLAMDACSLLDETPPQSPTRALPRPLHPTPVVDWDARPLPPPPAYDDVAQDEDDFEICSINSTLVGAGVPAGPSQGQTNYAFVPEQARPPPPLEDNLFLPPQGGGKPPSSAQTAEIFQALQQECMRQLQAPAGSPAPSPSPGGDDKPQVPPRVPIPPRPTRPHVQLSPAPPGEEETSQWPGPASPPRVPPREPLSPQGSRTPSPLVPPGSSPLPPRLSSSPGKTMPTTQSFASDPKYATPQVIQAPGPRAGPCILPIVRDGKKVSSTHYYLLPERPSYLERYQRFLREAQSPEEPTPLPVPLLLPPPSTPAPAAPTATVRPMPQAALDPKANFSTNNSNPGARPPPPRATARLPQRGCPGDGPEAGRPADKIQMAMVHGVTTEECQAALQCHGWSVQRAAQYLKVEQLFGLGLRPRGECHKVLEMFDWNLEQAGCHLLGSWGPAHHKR
In assay [3] the target is Serine/threonine-protein kinase B-raf (Homo sapiens, UniProt P15056).
Serine/threonine-protein kinase B-raf, sequence (P15056 whole entry): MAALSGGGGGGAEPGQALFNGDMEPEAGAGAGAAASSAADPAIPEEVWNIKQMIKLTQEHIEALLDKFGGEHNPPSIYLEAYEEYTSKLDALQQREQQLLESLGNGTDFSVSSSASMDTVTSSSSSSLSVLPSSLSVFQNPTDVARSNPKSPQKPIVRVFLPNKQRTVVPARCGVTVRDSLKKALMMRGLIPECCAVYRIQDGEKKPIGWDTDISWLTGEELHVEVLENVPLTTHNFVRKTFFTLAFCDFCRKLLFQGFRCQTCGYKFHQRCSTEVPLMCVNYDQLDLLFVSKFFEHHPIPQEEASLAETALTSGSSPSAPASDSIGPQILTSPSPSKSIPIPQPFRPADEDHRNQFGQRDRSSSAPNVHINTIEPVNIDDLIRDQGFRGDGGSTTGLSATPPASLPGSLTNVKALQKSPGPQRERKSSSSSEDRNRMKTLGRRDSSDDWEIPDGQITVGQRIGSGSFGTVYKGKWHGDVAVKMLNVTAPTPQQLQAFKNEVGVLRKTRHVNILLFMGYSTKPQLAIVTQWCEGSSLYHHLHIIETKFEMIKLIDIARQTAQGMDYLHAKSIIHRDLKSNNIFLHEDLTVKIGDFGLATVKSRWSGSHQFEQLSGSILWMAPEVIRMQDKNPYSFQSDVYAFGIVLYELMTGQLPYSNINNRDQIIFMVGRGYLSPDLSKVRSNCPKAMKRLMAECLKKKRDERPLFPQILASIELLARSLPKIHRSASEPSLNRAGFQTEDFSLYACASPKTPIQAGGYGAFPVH
Assay [4] has as its target Mitogen-activated protein kinase kinase kinase kinase 1 (Homo sapiens, UniProt Q92918).
Assay [5] addresses T2, Serine/threonine-protein kinase TAO1 (Homo sapiens, UniProt Q7L7X3).
T2 sequence (Q7L7X3 whole entry): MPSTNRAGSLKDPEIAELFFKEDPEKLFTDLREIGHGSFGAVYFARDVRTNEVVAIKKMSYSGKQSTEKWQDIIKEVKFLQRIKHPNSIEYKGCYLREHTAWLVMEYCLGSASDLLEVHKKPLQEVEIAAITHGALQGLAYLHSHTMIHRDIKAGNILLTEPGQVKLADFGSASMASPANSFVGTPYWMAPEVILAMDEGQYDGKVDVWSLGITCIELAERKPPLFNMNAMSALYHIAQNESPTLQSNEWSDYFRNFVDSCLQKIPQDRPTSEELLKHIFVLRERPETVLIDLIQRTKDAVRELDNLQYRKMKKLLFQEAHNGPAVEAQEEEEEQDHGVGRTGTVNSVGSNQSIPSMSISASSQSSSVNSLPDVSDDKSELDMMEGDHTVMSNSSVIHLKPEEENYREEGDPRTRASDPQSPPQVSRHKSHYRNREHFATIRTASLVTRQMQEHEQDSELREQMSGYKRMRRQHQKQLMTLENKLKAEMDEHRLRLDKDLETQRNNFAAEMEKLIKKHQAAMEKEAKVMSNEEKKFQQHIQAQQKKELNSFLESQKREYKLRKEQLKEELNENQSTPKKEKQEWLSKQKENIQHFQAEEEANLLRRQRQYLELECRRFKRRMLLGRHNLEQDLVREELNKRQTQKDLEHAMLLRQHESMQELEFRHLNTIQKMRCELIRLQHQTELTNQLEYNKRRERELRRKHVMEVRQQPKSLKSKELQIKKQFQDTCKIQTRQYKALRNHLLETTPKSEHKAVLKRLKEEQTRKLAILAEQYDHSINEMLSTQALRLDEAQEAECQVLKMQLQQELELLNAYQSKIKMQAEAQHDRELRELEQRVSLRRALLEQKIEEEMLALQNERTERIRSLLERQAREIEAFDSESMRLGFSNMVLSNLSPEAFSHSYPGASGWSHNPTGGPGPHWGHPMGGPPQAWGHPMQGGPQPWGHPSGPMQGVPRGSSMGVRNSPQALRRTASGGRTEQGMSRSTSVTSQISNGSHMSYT

For assay [6], the target named is Mitogen-activated protein kinase kinase kinase 1 (Homo sapiens, UniProt Q13233).
Mitogen-activated protein kinase kinase kinase 1, sequence (Q13233 whole entry): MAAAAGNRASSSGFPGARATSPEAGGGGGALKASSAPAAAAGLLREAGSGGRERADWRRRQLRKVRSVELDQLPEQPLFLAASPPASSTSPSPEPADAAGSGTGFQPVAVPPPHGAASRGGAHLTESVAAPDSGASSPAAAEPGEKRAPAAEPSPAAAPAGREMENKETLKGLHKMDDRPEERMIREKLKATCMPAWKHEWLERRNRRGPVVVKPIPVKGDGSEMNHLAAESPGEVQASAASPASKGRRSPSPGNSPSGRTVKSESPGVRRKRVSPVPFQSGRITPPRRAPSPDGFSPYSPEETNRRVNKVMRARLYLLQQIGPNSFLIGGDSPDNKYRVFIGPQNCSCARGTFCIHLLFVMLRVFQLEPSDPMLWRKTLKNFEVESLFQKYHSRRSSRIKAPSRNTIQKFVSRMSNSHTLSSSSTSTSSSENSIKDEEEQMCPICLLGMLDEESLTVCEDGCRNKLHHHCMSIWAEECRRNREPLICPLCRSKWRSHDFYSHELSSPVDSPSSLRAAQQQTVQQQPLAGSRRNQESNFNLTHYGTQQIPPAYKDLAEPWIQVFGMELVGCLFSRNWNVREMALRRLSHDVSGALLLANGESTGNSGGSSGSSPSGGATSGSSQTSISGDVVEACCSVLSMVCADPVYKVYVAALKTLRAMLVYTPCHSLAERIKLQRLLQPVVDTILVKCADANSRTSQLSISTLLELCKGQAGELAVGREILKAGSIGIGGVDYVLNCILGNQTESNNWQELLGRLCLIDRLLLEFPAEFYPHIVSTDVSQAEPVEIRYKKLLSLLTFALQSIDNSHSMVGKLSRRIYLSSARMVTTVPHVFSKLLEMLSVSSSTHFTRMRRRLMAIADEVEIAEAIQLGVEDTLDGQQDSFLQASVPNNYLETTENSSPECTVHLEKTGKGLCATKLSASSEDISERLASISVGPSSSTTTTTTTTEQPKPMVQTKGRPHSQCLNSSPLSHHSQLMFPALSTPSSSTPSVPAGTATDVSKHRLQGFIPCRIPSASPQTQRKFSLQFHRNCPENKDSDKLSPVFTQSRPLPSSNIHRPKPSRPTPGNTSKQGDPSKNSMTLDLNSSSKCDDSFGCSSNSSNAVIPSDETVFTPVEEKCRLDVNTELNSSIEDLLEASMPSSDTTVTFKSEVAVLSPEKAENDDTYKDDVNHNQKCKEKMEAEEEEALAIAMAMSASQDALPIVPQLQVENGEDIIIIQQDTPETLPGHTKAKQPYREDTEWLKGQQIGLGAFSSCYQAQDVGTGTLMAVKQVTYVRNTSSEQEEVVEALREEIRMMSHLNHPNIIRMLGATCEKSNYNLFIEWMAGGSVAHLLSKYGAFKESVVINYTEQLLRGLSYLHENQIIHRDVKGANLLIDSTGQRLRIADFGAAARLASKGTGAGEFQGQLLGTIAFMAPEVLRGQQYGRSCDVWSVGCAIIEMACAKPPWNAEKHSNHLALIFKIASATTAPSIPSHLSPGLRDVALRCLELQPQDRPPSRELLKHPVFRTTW
The target in assay [7] is T3, Dual specificity mitogen-activated protein kinase kinase 3 (Homo sapiens, UniProt P46734).
T3 sequence (P46734 whole entry): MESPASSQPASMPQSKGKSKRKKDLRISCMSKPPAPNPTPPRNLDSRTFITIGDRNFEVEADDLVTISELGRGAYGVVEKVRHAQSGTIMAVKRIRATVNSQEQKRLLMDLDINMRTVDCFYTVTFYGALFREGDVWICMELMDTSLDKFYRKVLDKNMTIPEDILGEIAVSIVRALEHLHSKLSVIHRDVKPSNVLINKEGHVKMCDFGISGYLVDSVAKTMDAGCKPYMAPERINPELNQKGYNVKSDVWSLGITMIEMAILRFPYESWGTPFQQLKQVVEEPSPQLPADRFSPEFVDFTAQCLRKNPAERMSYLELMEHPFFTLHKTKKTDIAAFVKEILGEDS

The source made the active and inactive calls. For most assays here, no stated cut-off is given here; in the data, actives have a measured Kd and inactives only a lower limit.

For orientation: Kd means the constant that tells how readily two partners part at equilibrium.

Mitogen-activated protein kinase kinase kinase kinase 1, sequence (Q92918 whole entry): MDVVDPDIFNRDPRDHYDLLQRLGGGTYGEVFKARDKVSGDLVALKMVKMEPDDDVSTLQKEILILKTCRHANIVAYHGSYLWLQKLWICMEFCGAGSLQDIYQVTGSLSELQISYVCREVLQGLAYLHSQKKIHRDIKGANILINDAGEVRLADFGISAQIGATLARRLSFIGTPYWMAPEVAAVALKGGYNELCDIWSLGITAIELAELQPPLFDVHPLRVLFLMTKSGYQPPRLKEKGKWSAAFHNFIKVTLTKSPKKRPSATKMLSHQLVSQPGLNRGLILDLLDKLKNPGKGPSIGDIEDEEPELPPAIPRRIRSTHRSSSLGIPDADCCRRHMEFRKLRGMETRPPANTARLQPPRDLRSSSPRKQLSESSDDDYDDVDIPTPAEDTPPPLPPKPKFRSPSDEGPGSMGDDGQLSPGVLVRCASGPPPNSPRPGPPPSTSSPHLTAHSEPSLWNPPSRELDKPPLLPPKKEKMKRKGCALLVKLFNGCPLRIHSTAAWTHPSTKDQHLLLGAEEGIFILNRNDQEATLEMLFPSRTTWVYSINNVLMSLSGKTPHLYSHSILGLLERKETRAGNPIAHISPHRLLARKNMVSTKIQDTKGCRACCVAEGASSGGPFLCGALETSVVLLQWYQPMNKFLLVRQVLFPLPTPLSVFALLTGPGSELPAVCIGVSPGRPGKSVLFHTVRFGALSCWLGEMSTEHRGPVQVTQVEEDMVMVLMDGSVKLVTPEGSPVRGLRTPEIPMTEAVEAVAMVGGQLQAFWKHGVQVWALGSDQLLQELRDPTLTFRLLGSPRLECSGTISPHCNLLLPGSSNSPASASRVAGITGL

`Cc1c(F)cc(C(=O)NC2CC2)cc1-c1ccc(C(=O)NCC(C)(C)C)cn1` [LOSMAPIMOD]: the Kd in assay [1], in assay [2], in assay [3], in assay [4], in assay [5] and in assay [6] was > 30 µM (inactive) each time. The Kd in assay [7] is > 30 µM (inactive).
As for `Cc1cc(-c2cc(O)ccc2Cl)cc2nnc(Nc3ccc(OCCN4CCCC4)cc3)nc12`, the Kd is > 30 µM (inactive) in assay [1]; > 30 µM (inactive) in assay [2]; 0.003 µM (active) in assay [3]; > 30 µM (inactive) in assay [4]; > 30 µM (inactive) in assay [5]; > 30 µM (inactive) in assay [6]. In assay [7], the Kd is > 30 µM (inactive).
For the compound `C=CC(=O)N1CCC(Oc2cc3c(Nc4ccc(Cl)c(Cl)c4F)ncnc3cc2OC)CC1` [POZIOTINIB], the Kd in assay [1], in assay [2], in assay [3], in assay [4], in assay [5] and in assay [6] was > 30 µM (inactive) in each case. In addition, in assay [7], the Kd is > 30 µM (inactive).
As to `O=C1NC(=O)/C(=C/c2ccc3nccc(-c4ccncc4)c3c2)S1` [GSK-1059615], the Kd in assay [1] was > 30 µM (inactive); in assay [2], > 30 µM (inactive); in assay [3] it was > 30 µM (inactive); in assay [4], > 30 µM (inactive); in assay [5] it was 0.002 µM (active); in assay [6], > 30 µM (inactive). Besides, in assay [7], the Kd is > 30 µM (inactive).
Regarding `CC[C@@H]1C(=O)N(C)c2cnc(Nc3ccc(C(=O)N[C@H]4CC[C@H](N5CCN(CC6CC6)CC5)CC4)cc3OC)nc2N1C(C)C` [VOLASERTIB], the Kd in assay [1], in assay [2], in assay [3], in assay [4], in assay [5] and in assay [6] was > 30 µM (inactive) throughout. Moreover, the Kd in assay [7] was > 30 µM (inactive).
In the case of `O=c1sn(-c2cccc3ccccc23)c(=O)n1Cc1ccccc1` [TIDEGLUSIB], the Kd in assay [1], in assay [2], in assay [3], in assay [4], in assay [5] and in assay [6] was > 30 µM (inactive) in each case. Further, the Kd in assay [7] is > 30 µM (inactive).
On to `CO[C@H]1C[C@@H]2CC[C@@H](C)[C@@](O)(O2)C(=O)C(=O)N2CCCC[C@H]2C(=O)O[C@H]([C@H](C)C[C@@H]2CC[C@@H](OCCO)[C@H](OC)C2)CC(=O)[C@H](C)/C=C(\C)[C@@H](O)[C@@H](OC)C(=O)[C@H](C)C[C@H](C)/C=C/C=C/C=C/1C` [EVEROLIMUS], for which the Kd in assay [1], in assay [2], in assay [3], in assay [4], in assay [5] and in assay [6] was > 30 µM (inactive) throughout. Also, in assay [7], the Kd is > 30 µM (inactive).
Take `CN(C)C(=O)c1cc2cnc(Nc3ccc(N4CCNCC4)cn3)nc2n1C1CCCC1` [RIBOCICLIB]: the Kd in assay [1] is > 30 µM (inactive); in assay [2] it was > 30 µM (inactive); in assay [3], > 30 µM (inactive); in assay [4], > 30 µM (inactive); in assay [5], > 30 µM (inactive); in assay [6], 12.5 µM (active). Also, the Kd in assay [7] was > 30 µM (inactive).
As to `CC(C)Nc1cc(-c2c[nH]c(C(=O)N[C@H](CO)c3cccc(Cl)c3)c2)c(Cl)cn1` [ULIXERTINIB], the Kd is > 30 µM (inactive) in assay [1]; > 30 µM (inactive) in assay [2]; > 30 µM (inactive) in assay [3]; > 30 µM (inactive) in assay [4]; 0.388 µM (active) in assay [5]; > 30 µM (inactive) in assay [6]. Also, in assay [7], the Kd is > 30 µM (inactive).

These data come from ChEMBL document CHEMBL3991601, “The target landscape of clinical kinase drugs” (Science, 2017).
